# According to patent publication US11596649B2, “Composition in powder form comprising iron and probiotic bacteria” (NESTEC S.A., priority 2016, dated 2023):
# Like-named read-outs stand apart in the source and are kept apart here.
# Key:
# [1] = in rat; Hurrell, Iron Fortification of Foods, 1985; cited from earlier work
# [2] = test system: probiotic bacteria; assay: Viability of probiotic bacteria with added iron source (general finding); type: cell-based; conditions: iron source in powder composition with probiotic bacteria, at reconstitution
# [3] = in human; Hurrell, Iron Fortification of Foods, 1985; cited from earlier work
# [4] = test system: Lactobacillus rhamnosus (deposited as CGMCC 1.3724); conditions: FIG. 4; for loss of live L. rhamnosus in the reconstituted compositions: 10 and 30 mg Fe2+ per 100 g infant formula powder (Nestogen 1)
# Experimental: An amount of 25 g of freshly mixed sample was diluted 1/10 in an aqueous tryptone salt solution supplemented with anti-foaming agent at 37° C. After 5 minutes of homogenization using a Masticator® (IUL, Spain), decimal dilutions were performed. The appropriate dilution resulting in 30-300 colonies after incubation was then transferred to a petri dish and mixed with MRS agar according to the pour plate method. Once solidified the plates were incubated at 37° C. under aerobic conditions. After 48 h of incubation the colonies present on the plates were counted.
# [5] = test system: Bifidobacterium longum (deposited as ATCC BAA-999); conditions: 5, 25 and 50 mg Fe2+ per 100 g maltodextrin model composition, FIG. 2
# Experimental: The Samples were produced as follows. The maltodextrin, the dried probiotic powder and the iron source were added together in a 500 mL plastic beaker and mixed for 5 minutes at 34 rpm using a Turbula® T2F dry mixer (WAB, Switzerland). An amount of 25 g of freshly mixed sample was diluted 1/10 in an aqueous tryptone salt solution supplemented with anti-foaming agent at 37° C. After 5 minutes of homogenization using a Masticator® (IUL, Spain), decimal dilutions were performed. The appropriate dilution resulting in 30-300 colonies after incubation was then transferred to a petri dish and mixed with RCA agar according to the pour plate method. Once solidified the plates were incubated at 37° C. under anaerobic conditions. After 48 h of incubation the colonies present on the plates were counted.
# [6] = test system: Bifidobacterium longum (deposited as ATCC BAA-999); conditions: FIG. 5; for loss of live Bifidobacterium longum in the reconstituted compositions: 25 and 50 mg Fe2+ per 100 g infant formula powder (Nestogen 1)
# Experimental: The Samples were produced as follows. The infant formula powder, the dried probiotic powder and the iron source were added together in a 500 mL plastic beaker and mixed for 5 minutes at 34 rpm using a Turbula® T2F dry mixer (WAB, Switzerland). An amount of 25 g of freshly mixed sample was diluted 1/10 in an aqueous tryptone salt solution supplemented with anti-foaming agent at 37° C. After 5 minutes of homogenization using a Masticator® (IUL, Spain), decimal dilutions were performed. The appropriate dilution resulting in 30-300 colonies after incubation was then transferred to a petri dish and mixed with RCA agar according to the pour plate method. Once solidified the plates were incubated at 37° C. under anaerobic conditions. After 48 h of incubation the colonies present on the plates were counted.
# [7] = test system: Lactobacillus rhamnosus (deposited as CGMCC 1.3724); conditions: 10 and 30 mg Fe2+ per 100 g maltodextrin model composition, FIG. 1
# Experimental: (§1) The maltodextrin, the dried probiotic powder and the iron source were added together in a 500 mL plastic beaker and mixed for 5 minutes at 34 rpm using a Turbula® T2F dry mixer (WAB, Switzerland). An amount of 25 g of freshly mixed sample was diluted 1/10 in an aqueous tryptone salt solution supplemented with anti-foaming agent at 37° C. After 5 minutes of homogenization using a Masticator® (IUL, Spain), decimal dilutions were performed. The appropriate dilution resulting in 30-300 colonies after incubation was then transferred to a petri dish and mixed with MRS agar according to the pour plate method. Once solidified the plates were incubated at 37° C. under aerobic conditions. After 48 h of incubation the colonies present on the plates were counted.
# [8] = test system: Lactobacillus paracasei (deposited as CNCM I-2116); assay: Survival of Lactobacillus paracasei on reconstitution, maltodextrin model composition (Example 3, plate count); type: cell-based; conditions: 5, 25 and 50 mg Fe2+ per 100 g maltodextrin model composition, FIG. 3
# Experimental: as §1
Molecule,bioavailability [1] [%],loss of viability of probiotic bacteria [2],average bioavailability [3] [%],"loss of viable Lactobacillus rhamnosus compared with dissolved ferrous sulphate in spray-dried form ([4]; 10 and 30 mg Fe2+ per 100 g infant formula composition, both iron concentrations)",loss of live L. rhamnosus in the reconstituted compositions [4],loss of live Bifidobacterium longum in the reconstituted compositions [5],loss of viable Bifidobacterium longum compared with dissolved ferrous sulphate in spray-dried form ([5]; all iron concentrations),"loss of viable Bifidobacterium longum compared with dissolved ferrous sulphate in spray-dried form ([6]; 25 and 50 mg Fe2+ per 100 g infant formula composition, all iron concentrations)",loss of live Bifidobacterium longum in the reconstituted compositions [6],loss of live L. rhamnosus in the reconstituted compositions [7],loss of viable Lactobacillus rhamnosus compared with dissolved ferrous sulphate in spray-dried form ([7]; both iron concentrations),loss of live Lactobacillus paracasei in the reconstituted compositions [8],loss of viable Lactobacillus paracasei compared with dissolved ferrous sulphate in spray-dried form ([8]; all iron concentrations)
ferric citrate,75,do not significantly impair,31,–,–,–,–,–,–,–,–,–,–
O.O=S(=O)([O-])[O-].[Fe+2] [ferrous sulphate monohydrate],–,no significant loss,–,significantly lower,no significant loss,no significant loss,significantly lower,significantly lower,no significant loss,no significant loss,significantly lower,no significant loss,significantly lower
"O.O.O.O.O.O.O.O=S(=O)([O-])[O-].[Fe+2] [ferrous sulphate heptahydrate, reference compound]",–,significant loss,–,–,significant loss,significant loss,–,–,significant loss,significant loss,–,–,–
O=C([O-])CC(O)(CC(=O)O)C(=O)[O-].[Fe+2] [ferrous citrate],–,do not significantly impair,74,–,–,–,–,–,–,–,–,–,–
